Data: patent publication US20120029187A1, “HALOALKYLSULFONANILIDE DERIVATIVE” (Nissan Chemical Industries, Ltd., priority 2009, published 2012)

Columns and labels:
Type in all cases: in vivo
transplanted rice = experiment: Test Example 1: preemergence treatment under submerged conditions, effect on crop; conditions: dose 2.52 g/a
Procedure, shortened: (§1)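 Alluvial soil flooded to 4 cm depth; barnyardgrass, bulrush and ducksalad sown and 2.5-leaf rice seedlings transplanted. Same day, water-diluted emulsifiable concentrates applied to the water surface at set doses (g/a). Kept at 25–30 °C in greenhouse; effects scored 0–5 by mortality after three weeks.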

common ragweed [1] = experiment: Test Example 4: herbicidal effect in foliage treatment; conditions: dose 3.2 g/a, three weeks after application
Procedure, shortened: (§2)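 Seeds were spot-sown in boxes of sterilized diluvial soil and raised in a greenhouse (25 to 30° C) for 14 days before a single foliar application. Compounds were applied as emulsifiable concentrates diluted with water, at predetermined doses in g/a. Injury was graded three weeks post-spray.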

redroot pigweed [2] = experiment: as above; conditions: dose 3.2 g/a, three weeks after application
Procedure, shortened: as §2

giant foxtail [3] = experiment: as above; conditions: dose 3.2 g/a, three weeks after application
Procedure, shortened: as §2

barnyardgrass [4] = experiment: as above; conditions: dose 3.2 g/a, three weeks after application
Procedure, shortened: as §2

large crabgrass [5] = experiment: as above; conditions: dose 3.2 g/a, three weeks after application
Procedure, shortened: as §2

common chickweed [6] = experiment: as above; conditions: dose 3.2 g/a, three weeks after application
Procedure, shortened: as §2

water foxtail [7] = experiment: as above; conditions: dose 3.2 g/a, three weeks after application
Procedure, shortened: as §2

common lambsquater [8] = experiment: as above; conditions: dose 3.2 g/a, three weeks after application
Procedure, shortened: as §2

velvetleaf [9] = experiment: as above; conditions: dose 3.2 g/a, three weeks after application
Procedure, shortened: as §2

wild oat [10] = experiment: as above; conditions: dose 3.2 g/a, three weeks after application
Procedure, shortened: as §2

posumbu knotweed [11] = experiment: as above; conditions: dose 3.2 g/a, three weeks after application
Procedure, shortened: as §2

beadstraw [12] = experiment: as above; conditions: dose 3.2 g/a, three weeks after application
Procedure, shortened: as §2

Italian ryegrass [13] = experiment: as above; conditions: dose 3.2 g/a, three weeks after application
Procedure, shortened: as §2

ducksalad [14] = experiment: Test Example 2: herbicidal effects during the vegetation period under submerged conditions; conditions: treatment during the vegetation period under submerged conditions; dose 2.52 g/a
Procedure, shortened: (§3)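 Barnyardgrass, bulrush and ducksalad were co-sown in alluvial soil flooded to 4 cm and grown in a greenhouse at 25 to 30° C. At the 1- or 2-leaf stage, water-diluted emulsifiable concentrates went onto the water surface at set doses (g/a). Herbicidal effect was scored three weeks later on a graded scale.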

barnyardgrass [15] = experiment: as above; conditions: treatment during the vegetation period under submerged conditions; dose 2.52 g/a
Procedure, shortened: as §3

bulrush [16] = experiment: as above; conditions: treatment during the vegetation period under submerged conditions; dose 2.52 g/a
Procedure, shortened: as §3

common ragweed [17] = experiment: Test Example 3: herbicidal effects in soil treatment; conditions: dose 3.2 g/a
Procedure, shortened: (§4)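 Seeds were sown in sterilized diluvial soil and covered with about 1.5 cm of soil. Compounds, formulated as emulsifiable concentrates and diluted with water, were sprayed evenly over the soil surface at set doses in g/a. Herbicidal effect was scored on a rating scale three weeks later.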

redroot pigweed [18] = experiment: as above; conditions: dose 3.2 g/a
Procedure, shortened: as §4

giant foxtail [19] = experiment: as above; conditions: dose 3.2 g/a
Procedure, shortened: as §4

barnyardgrass [20] = experiment: as above; conditions: dose 3.2 g/a
Procedure, shortened: as §4

large crabgrass [21] = experiment: as above; conditions: dose 3.2 g/a
Procedure, shortened: as §4

common chickweed [22] = experiment: as above; conditions: dose 3.2 g/a
Procedure, shortened: as §4

water foxtail [23] = experiment: as above; conditions: dose 3.2 g/a
Procedure, shortened: as §4

common lambsquater [24] = experiment: as above; conditions: dose 3.2 g/a
Procedure, shortened: as §4

velvetleaf [25] = experiment: as above; conditions: dose 3.2 g/a
Procedure, shortened: as §4

wild oat [26] = experiment: as above; conditions: dose 3.2 g/a
Procedure, shortened: as §4

posumbu knotweed [27] = experiment: as above; conditions: dose 3.2 g/a
Procedure, shortened: as §4

beadstraw [28] = experiment: as above; conditions: dose 3.2 g/a
Procedure, shortened: as §4

Italian ryegrass [29] = experiment: as above; conditions: dose 3.2 g/a
Procedure, shortened: as §4

ducksalad [30] = experiment: Test Example 1: herbicidal effects in preemergence treatment under submerged conditions; conditions: dose 2.52 g/a
Procedure, shortened: as §1

barnyardgrass [31] = experiment: as above; conditions: dose 2.52 g/a
Procedure, shortened: as §1

bulrush [32] = experiment: as above; conditions: dose 2.52 g/a
Procedure, shortened: as §1

SMILES | a: transplanted rice, effect on crop (evaluation scale 0-5) (transplanted rice) | J: common ragweed, herbicidal effect (common ragweed [1]) | K: redroot pigweed, herbicidal effect (redroot pigweed [2]) | E: giant foxtail, herbicidal effect (giant foxtail [3]) | A: barnyardgrass, herbicidal effect (barnyardgrass [4]) | D: large crabgrass, herbicidal effect (large crabgrass [5]) | N: common chickweed, herbicidal effect (common chickweed [6]) | G: water foxtail, herbicidal effect (water foxtail [7]) | L: common lambsquater, herbicidal effect (common lambsquater [8]) | I: velvetleaf, herbicidal effect (velvetleaf [9]) | F: wild oat, herbicidal effect (wild oat [10]) | M: posumbu knotweed, herbicidal effect (posumbu knotweed [11]) | O: beadstraw, herbicidal effect (beadstraw [12]) | H: Italian ryegrass, herbicidal effect (Italian ryegrass [13]) | C: ducksalad, herbicidal effect (evaluation scale 0-5) (ducksalad [14]) | A: barnyardgrass, herbicidal effect (evaluation scale 0-5) (barnyardgrass [15]) | B: bulrush, herbicidal effect (evaluation scale 0-5) (bulrush [16]) | J: common ragweed, herbicidal effect (evaluation scale 0-5) (common ragweed [17]) | K: redroot pigweed, herbicidal effect (evaluation scale 0-5) (redroot pigweed [18]) | E: giant foxtail, herbicidal effect (evaluation scale 0-5) (giant foxtail [19]) | also measured
CC(C)COC(=O)N(c1ccccc1CN1CC(C)OCC1=O)S(=O)(=O)C(F)(F)F (stereo not drawn) [Compound I-9] | 0 (mortality of less than 5% (almost ineffective)) | 4 (mortality of at least 70% and less than 90%) | 2 (mortality of at least 20% and less than 40%) | 3 (mortality of at least 40% and less than 70%) | 5 (mortality of 90% or above (nearly complete death)) | 5 (mortality of 90% or above (nearly complete death)) | 3 (mortality of at least 40% and less than 70%) | 5 (mortality of 90% or above (nearly complete death)) | 0 (mortality of less than 5% (almost ineffective)) | 5 (mortality of 90% or above (nearly complete death)) | 0 (mortality of less than 5% (almost ineffective)) | 0 (mortality of less than 5% (almost ineffective)) | 4 (mortality of at least 70% and less than 90%) | 3 (mortality of at least 40% and less than 70%) | 5 (mortality of 90% or above (nearly complete death)) | 5 (mortality of 90% or above (nearly complete death)) | 5 (mortality of 90% or above (nearly complete death)) | 5 (mortality of 90% or above (nearly complete death)) | 4 (mortality of at least 70% and less than 90%) | 4 (mortality of at least 70% and less than 90%) | A: barnyardgrass, herbicidal effect (evaluation scale 0-5) (barnyardgrass [20]): 5 (mortality of 90% or above (nearly complete death)); D: large crabgrass, herbicidal effect (evaluation scale 0-5) (large crabgrass [21]): 5 (mortality of 90% or above (nearly complete death)); N: common chickweed, herbicidal effect (evaluation scale 0-5) (common chickweed [22]): 5 (mortality of 90% or above (nearly complete death)); G: water foxtail, herbicidal effect (evaluation scale 0-5) (water foxtail [23]): 5 (mortality of 90% or above (nearly complete death)); L: common lambsquater, herbicidal effect (evaluation scale 0-5) (common lambsquater [24]): 0 (mortality of less than 5% (almost ineffective)); I: velvetleaf, herbicidal effect (evaluation scale 0-5) (velvetleaf [25]): 5 (mortality of 90% or above (nearly complete death)); F: wild oat, herbicidal effect (evaluation scale 0-5) (wild oat [26]): 3 (mortality of at least 40% and less than 70%); M: posumbu knotweed, herbicidal effect (evaluation scale 0-5) (posumbu knotweed [27]): 0 (mortality of less than 5% (almost ineffective)); O: beadstraw, herbicidal effect (evaluation scale 0-5) (beadstraw [28]): 4 (mortality of at least 70% and less than 90%); H: Italian ryegrass, herbicidal effect (evaluation scale 0-5) (Italian ryegrass [29]): 3 (mortality of at least 40% and less than 70%); C: ducksalad, herbicidal effect (evaluation scale 0-5) (ducksalad [30]): 5 (mortality of 90% or above (nearly complete death)); A: barnyardgrass, herbicidal effect (evaluation scale 0-5) (barnyardgrass [31]): 5 (mortality of 90% or above (nearly complete death)); B: bulrush, herbicidal effect (evaluation scale 0-5) (bulrush [32]): 5 (mortality of 90% or above (nearly complete death))
CC1(C)OCN(Cc2ccccc2N(S(=O)(=O)C(F)(F)F)S(=O)(=O)C(F)(F)F)C(=O)C1F (stereo not drawn) [II-37] | 2 (mortality of at least 20% and less than 40%) | 4 (mortality of at least 70% and less than 90%) | 2 (mortality of at least 20% and less than 40%) | 3 (mortality of at least 40% and less than 70%) | 5 (mortality of 90% or above (nearly complete death)) | 4 (mortality of at least 70% and less than 90%) | 4 (mortality of at least 70% and less than 90%) | 5 (mortality of 90% or above (nearly complete death)) | 2 (mortality of at least 20% and less than 40%) | 3 (mortality of at least 40% and less than 70%) | 1 (mortality of at least 5% and less than 20%) | 3 (mortality of at least 40% and less than 70%) | 4 (mortality of at least 70% and less than 90%) | 3 (mortality of at least 40% and less than 70%) | 5 (mortality of 90% or above (nearly complete death)) | 5 (mortality of 90% or above (nearly complete death)) | 5 (mortality of 90% or above (nearly complete death)) | 5 (mortality of 90% or above (nearly complete death)) | 3 (mortality of at least 40% and less than 70%) | 3 (mortality of at least 40% and less than 70%) | A: barnyardgrass, herbicidal effect (evaluation scale 0-5) (barnyardgrass [20]): 5 (mortality of 90% or above (nearly complete death)); D: large crabgrass, herbicidal effect (evaluation scale 0-5) (large crabgrass [21]): 5 (mortality of 90% or above (nearly complete death)); N: common chickweed, herbicidal effect (evaluation scale 0-5) (common chickweed [22]): 2 (mortality of at least 20% and less than 40%); G: water foxtail, herbicidal effect (evaluation scale 0-5) (water foxtail [23]): 5 (mortality of 90% or above (nearly complete death)); L: common lambsquater, herbicidal effect (evaluation scale 0-5) (common lambsquater [24]): 0 (mortality of less than 5% (almost ineffective)); I: velvetleaf, herbicidal effect (evaluation scale 0-5) (velvetleaf [25]): 0 (mortality of less than 5% (almost ineffective)); F: wild oat, herbicidal effect (evaluation scale 0-5) (wild oat [26]): 4 (mortality of at least 70% and less than 90%); M: posumbu knotweed, herbicidal effect (evaluation scale 0-5) (posumbu knotweed [27]): 0 (mortality of less than 5% (almost ineffective)); O: beadstraw, herbicidal effect (evaluation scale 0-5) (beadstraw [28]): 4 (mortality of at least 70% and less than 90%); H: Italian ryegrass, herbicidal effect (evaluation scale 0-5) (Italian ryegrass [29]): 0 (mortality of less than 5% (almost ineffective)); C: ducksalad, herbicidal effect (evaluation scale 0-5) (ducksalad [30]): 5 (mortality of 90% or above (nearly complete death)); A: barnyardgrass, herbicidal effect (evaluation scale 0-5) (barnyardgrass [31]): 5 (mortality of 90% or above (nearly complete death)); B: bulrush, herbicidal effect (evaluation scale 0-5) (bulrush [32]): 5 (mortality of 90% or above (nearly complete death))
